In paper PMC2074382 (British Journal of Cancer, 1996):
Structures can show the parent of a compound that is named as a salt.

Legend:
[1] = test system: patients with a solid tumour; experiment: Phase I study, toxicity (CTC criteria) of GI147211 30 min i.v. infusion daily x 5 every 3 weeks; assay type: in vivo, human
Excerpt: British Journal of Cancer (1996) 73, 744-750 O (C? 1996 Stockton Press All rights reserved 0007-0920/96 $12.00 Phase I and pharmacological study of the new topoisomerase I inhibitor G1147211, using a daily x 5 intravenous administration CJH Gerrits', GJ Creemers', JHM Schellens', P Wissel2, AS Th Planting', R Kunka2, K Selinger2, M de Boer-Dennert', Y Marijnen3, M Harteveld' and J Verweijl 'Department of Medical Oncology, Rotterdam Cancer Institute, Rotterdam, The Netherlands; 2Glaxo Wellcome Inc, Department of Clinical Pharmacology, NC, USA; 3Glaxo Wellcome Inc, Department of Clinical Research, Zeist, The Netherlands. Summary Topoisomerase I inhibitors are interesting anti-cancer agents with a novel mechanism of action. […] In subsequent patient cohorts the dose was escalated from 0.3 to 1.5 mg m-2 day-'. Pharmacokinetics analysis was performed on days 1 and 4 of the first course using a validated high- performance liquid chromatographic assay and non-compartmental methods. […] Its further development was stopped because of unpredictable and severe myelosuppression, gastrointestinal toxicity and haemorrhagic cystitis. In the late 1980s two discoveries brought about a renewal of interest in CPT; firstly, topoisomerase I was identified as the single cellular target of CPT (Hsiang et al., 1985; Hsiang and Liu, 1988) and, secondly, an overexpression of topoisomerase I was found in various tumour cell lines but not in normal tissues (Giovanella et al., 1989; Hirabayaski et al., 1992; Potmesil et al., 1988). Topoisomerase I is a nuclear enzyme that resolves topological problems of the torsionally strained (supercoiled) DNA (Slichenmyer et al., 1993). This is achieved by forming a covalent adduct between topoisome- rase I and the DNA, termed the cleavable complex. This catalytic intermediate creates single-strand DNA breaks, allowing the DNA molecule to rotate around the intact DNA strand at the cleavage site, leading to a relaxation of the DNA molecule and in this way replication, transcription and other DNA functions can proceed. These enzyme- bridged breaks are then resealed by topoisomerase I. CPT stabilises the cleavable complexes, thereby preventing resealing of single-strand DNA breaks in the presence of the drug (Covey et al., 1989; D'Arpa and Liu, 1989; Eng et al., 1988). Cytotoxicity is specific to the S-phase of the cell cycle because the double-strand breaks that occur during this phase are more difficult to repair in the presence of the drug (Horwitz and Horwitz, 1973). […] Other eligibility criteria included: (1) age>, 18 years; (2) an Eastern Cooperative Oncology Group (ECOG) performance status <2; (3) a predicted life expectancy of at least 3 months; (4) no previous anti-cancer therapy for at least 3 weeks (6 weeks for previous nitro- soureas or mitomycin C); (5) adequate haemato- poietic (WBC) 3 x 109 -', ANC > 1.5 x 109 1-' and platelets 100 x 10 1- 1), hepatic (bilirubin within normal limits, AST, ALT and/or alkaline phosphatase < 2.0 x normal), and renal (serum creatinine < 130 imol 1-') functions. All patients gave written informed consent.

[2] = animals, intravenous route; cited from earlier work
[3] = 0.3 mg m-2 day-1, 3 patients, 10 evaluable courses
[4] = 0.6 mg m-2 day-1, 3 patients, 18 evaluable courses
[5] = 0.9 mg m-2 day-1, 3 patients, 9 evaluable courses
[6] = 1.2 mg m-2 day-1, 6 patients, 15 evaluable courses
[7] = 1.2 mg m-2 day-1, n=6, Table III
[8] = 1.2 mg m-2 day-1, n=7, Table III
[9] = 1.5 mg m-2 day-1, 6 patients, 15 evaluable courses
[10] = 1.5 mg m-2 day-1, n=7, Table III
[11] = 1.5 mg m-2 day-1, n=13, Table III

CC[C@@]1(O)C(=O)OCc2c1cc1n(c2=O)Cc2c-1nc1cc3c(cc1c2CN1CCN(C)CC1)OCCO3 [GI147211, [7 - (methylpiperazinomethylene) - 10,11 - ethylene-dioxy-20(S)] camptothecin dihydrochloride]
Leucocytes CTC grade 1, number of courses [1, 3]: 0
Leucocytes CTC grade 2, number of courses [1, 3]: 0
Leucocytes CTC grade 3, number of courses [1, 3]: 0
Leucocytes CTC grade 4, number of courses [1, 3]: 0
Neutrophils CTC grade 1, number of courses [1, 3]: 0
Neutrophils CTC grade 2, number of courses [1, 3]: 0
Neutrophils CTC grade 3, number of courses [1, 3]: 0
Neutrophils CTC grade 4, number of courses [1, 3]: 0
Platelets CTC grade 1, number of courses [1, 3]: 0
Platelets CTC grade 2, number of courses [1, 3]: 0
Platelets CTC grade 3, number of courses [1, 3]: 0
Platelets CTC grade 4, number of courses [1, 3]: 0
Leucocytes CTC grade 1, number of courses [1, 4]: 8
Leucocytes CTC grade 2, number of courses [1, 4]: 0
Leucocytes CTC grade 3, number of courses [1, 4]: 0
Leucocytes CTC grade 4, number of courses [1, 4]: 0
Neutrophils CTC grade 1, number of courses [1, 4]: 4
Neutrophils CTC grade 2, number of courses [1, 4]: 1
Neutrophils CTC grade 3, number of courses [1, 4]: 0
Neutrophils CTC grade 4, number of courses [1, 4]: 0
Platelets CTC grade 1, number of courses [1, 4]: 1
Platelets CTC grade 2, number of courses [1, 4]: 0
Platelets CTC grade 3, number of courses [1, 4]: 0
Platelets CTC grade 4, number of courses [1, 4]: 0
Leucocytes CTC grade 1, number of courses [1, 5]: 3
Leucocytes CTC grade 2, number of courses [1, 5]: 1
Leucocytes CTC grade 3, number of courses [1, 5]: 1
Leucocytes CTC grade 4, number of courses [1, 5]: 0
Neutrophils CTC grade 1, number of courses [1, 5]: 0
Neutrophils CTC grade 2, number of courses [1, 5]: 4
Neutrophils CTC grade 3, number of courses [1, 5]: 1
Neutrophils CTC grade 4, number of courses [1, 5]: 0
Platelets CTC grade 1, number of courses [1, 5]: 4
Platelets CTC grade 2, number of courses [1, 5]: 2
Platelets CTC grade 3, number of courses [1, 5]: 1
Platelets CTC grade 4, number of courses [1, 5]: 0
ANC nadir, range ([1]; 1.2 mg m-2 day-1): 0.08-5.6 x 109 l-1
grade 3-4 neutropenia, courses ([1]; 1.2 mg m-2 day-1): 7/15
grade 3-4 thrombocytopenia, courses ([1]; 1.2 mg m-2 day-1): 6/15
median ANC nadir ([1]; 1.2 mg m-2 day-1): 1.29e+09 L⁻¹
median platelet nadir ([1]; 1.2 mg m-2 day-1): 7.4e+10 L⁻¹
platelet nadir, range ([1]; 1.2 mg m-2 day-1): 33-379 x 109 l-1
subsequent courses postponed owing to prolonged myelosuppression ([1]; 1.2 mg m-2 day-1): 6/15
Leucocytes CTC grade 1, number of courses [1, 6]: 1
Leucocytes CTC grade 2, number of courses [1, 6]: 1
Leucocytes CTC grade 3, number of courses [1, 6]: 4
Leucocytes CTC grade 4, number of courses [1, 6]: 2
Neutrophils CTC grade 1, number of courses [1, 6]: 2
Neutrophils CTC grade 2, number of courses [1, 6]: 2
Neutrophils CTC grade 3, number of courses [1, 6]: 1
Neutrophils CTC grade 4, number of courses [1, 6]: 6
Platelets CTC grade 1, number of courses [1, 6]: 0
Platelets CTC grade 2, number of courses [1, 6]: 1
Platelets CTC grade 3, number of courses [1, 6]: 6
Platelets CTC grade 4, number of courses [1, 6]: 0
Day nadir, thrombocytopenia (range) [1, 7]: 15 (10-19) day
Median day of occurrence of grade 3-4 thrombocytopenia (range) [1, 7]: 15 (15-15) day
Median number of days from grade 3-4 to recovery > grade 2 thrombocytopenia (range) [1, 7]: 7 (2-8) days
Day nadir, neutropenia (range) [1, 8]: 22 (13-22) day
Median day of occurrence of grade 3-4 neutropenia (range) [1, 8]: 15 (10-19) day
Median number of days from grade 3-4 to recovery > grade 2 neutropenia (range) [1, 8]: 10 (1_10) days
ANC nadir, range ([1]; 1.5 mg m-2 day-1): 0.01-1.7 x 109 l-1
grade 3-4 neutropenia, courses ([1]; 1.5 mg m-2 day-1): 13/15
grade 3-4 neutropenia, per cent of courses ([1]; 1.5 mg m-2 day-1): 86%
median ANC nadir ([1]; 1.5 mg m-2 day-1): 9e+07 L⁻¹
median platelet nadir ([1]; 1.5 mg m-2 day-1): 6.2e+10 L⁻¹
platelet nadir, range ([1]; 1.5 mg m-2 day-1): 10-116 x 109 l-1
thrombocytopenia complicated by gastrointestinal bleeding ([1]; 1.5 mg m-2 day-1): two
thrombocytopenia grade 3-4, courses ([1]; 1.5 mg m-2 day-1): 7/15
thrombocytopenia grade 3-4, per cent of courses ([1]; 1.5 mg m-2 day-1): 46%
treatment delay, courses ([1]; 1.5 mg m-2 day-1): 5 of the 15 courses
Leucocytes CTC grade 1, number of courses [1, 9]: 0
Leucocytes CTC grade 2, number of courses [1, 9]: 9
Leucocytes CTC grade 3, number of courses [1, 9]: 3
Leucocytes CTC grade 4, number of courses [1, 9]: 3
Neutrophils CTC grade 1, number of courses [1, 9]: 2
Neutrophils CTC grade 2, number of courses [1, 9]: 0
Neutrophils CTC grade 3, number of courses [1, 9]: 2
Neutrophils CTC grade 4, number of courses [1, 9]: 11
Platelets CTC grade 1, number of courses [1, 9]: 2
Platelets CTC grade 2, number of courses [1, 9]: 6
Platelets CTC grade 3, number of courses [1, 9]: 4
Platelets CTC grade 4, number of courses [1, 9]: 3
Day nadir, thrombocytopenia (range) [1, 10]: 15 (13 15) day
Median day of occurrence of grade 3-4 thrombocytopenia (range) [1, 10]: 15 (10-15) day
Median number of days from grade 3-4 to recovery > grade 2 thrombocytopenia (range) [1, 10]: 8 (5-12) days
Day nadir, neutropenia (range) [1, 11]: 15 (13 -22) day
Median day of occurrence of grade 3-4 neutropenia (range) [1, 11]: 10 (5-25) day
Median number of days from grade 3-4 to recovery > grade 2 neutropenia (range) [1, 11]: 11 (4-25) days
infectious complications ([1]; 1.5 mg m-2 day-1, two life-threatening septic): Three
maximal tolerated dose ([1]; 30 min i.v. infusion daily x 5, every 3 weeks): 1.2 mg m-2 day-1
severity of nausea and vomiting ([1]; CTC grade): never worse than grade 1-2
cumulative myelotoxicity ([1]; all dose levels): not observed
mild headache, courses ([1]; all dose levels): eight
mild headache, per cent of courses ([1]; all dose levels): 12%
nausea, per cent of given courses ([1]; all dose levels): 44%
other non-haematological toxicities ([1]; all dose levels): no diarrhoea, mucositis, liver or renal toxicity
vomiting, per cent of given courses ([1]; all dose levels): 22%
nausea, number of given courses ([1]; all dose levels, 67 courses): 30 courses
vomiting, number of given courses ([1]; all dose levels, 67 courses): 15 courses
dose-limiting toxicities ([1]; at 1.5 mg m-2 day-1): neutropenia and thrombocytopenia
myelotoxicity ([1]; first two dose levels (0.3, 0.6 mg m-2 day-1)): No myelotoxicity
alopecia grade 1 ([1]; highest two dose levels): three
anaemia ([1]; in vivo): occurred frequently but was never severe
recommended dose for phase II studies ([1]; x 5 every 3 weeks): 1.2 mg m-2
main and dose-limiting toxicity [2]: myelosuppression
